# Measured values as given in patent US11974988B2, “Neuroprotective compositions and methods of using the same” (The Board of Supervisors of Louisiana State Univer …, priority 2018, dated 2024).
# Assays:
# [1] = test system: hippocampal neurons of KA-treated rats; experiment: KA-induced status epilepticus model, hippocampal neurodegeneration (fluoro-jade B, NeuN); format: in vivo, rat; settings: rat, in vivo
# Description: (§1) In Aim 3, we treat male and female rats with the ‘best’ SKA-41 derivatives before and after injection of kainic acid (KA). The KA-induced status epilepticus (SE) model is a well-validated model of temporal lobe epilepsy (TLE), the major form of human epilepsy. The model allows studying the different stages between SE and the development of TLE including SE, the acute and latent stages of epileptogenesis and chronic epilepsy. The excitotoxin KA causes excessive Glu release in the hippocampus and selective destruction of inhibitory SOM interneurons in the hilus region of the dentate gyrus (DG) and loss of pyramidal neurons in the CA3 (esp), and also CA1 regions. We scaled up synthesis of SKA-41, 219, and SKA-378. The identity of the compounds was confirmed by ^1H- and ^13C-NMR and high-resolution mass spectrometry. Compound purity is determined by HPLC and no compounds with less then 98% purity were used. […] Rats were processed for immunohistochemistry 3 days after KA administration. As expected, we find that KA treatment induces significant neural damage (green cells) in the CA3 pyramidal neuron subfield and in neurons in the hilus (FIG. 20 Panel A), which are SOM containing GABAergic interneurons (not shown). Fluoro jade B is a high affinity fluorescent marker used for the localization of neuronal degeneration. […] In studies, we have also administered SKA-378 (30 mg/kg) one hr after the onset of stage IV seizures (SE), followed by another injection at 4 hr post SE and then once each day for 3 days. We find that SKA-378 is also neuroprotective under these conditions.
# as §1, with “with” for “with the ‘best’”, “(esp)” for “(esp),”, “were” for “was”, “We” for “As expected, we”, “23” for “20”, “Fluoro-jade” for “Fluoro jade”
# [2] = Max. solubility (Table 1); format: physicochemical
smiles,measurement,setting,value
"Nc1nc(-c2ccc(OC(F)(F)F)cc2)cs1 [SKA-41, 4-(4-(Trifluoromethoxy)phenyl)thiazol-2-amine]",neuroprotection against Glu-induced excitotoxicity in the KA model of TLE,[1],neuroprotective
same,solubility,[2],50 µM
